The text below walks through data of ChEMBL document CHEMBL3991601, “The target landscape of clinical kinase drugs” (Science, 2017).

Test [1] concerns the target T1, Glycogen phosphorylase, liver form (Homo sapiens, UniProt P06737).
T1 sequence (P06737 whole entry): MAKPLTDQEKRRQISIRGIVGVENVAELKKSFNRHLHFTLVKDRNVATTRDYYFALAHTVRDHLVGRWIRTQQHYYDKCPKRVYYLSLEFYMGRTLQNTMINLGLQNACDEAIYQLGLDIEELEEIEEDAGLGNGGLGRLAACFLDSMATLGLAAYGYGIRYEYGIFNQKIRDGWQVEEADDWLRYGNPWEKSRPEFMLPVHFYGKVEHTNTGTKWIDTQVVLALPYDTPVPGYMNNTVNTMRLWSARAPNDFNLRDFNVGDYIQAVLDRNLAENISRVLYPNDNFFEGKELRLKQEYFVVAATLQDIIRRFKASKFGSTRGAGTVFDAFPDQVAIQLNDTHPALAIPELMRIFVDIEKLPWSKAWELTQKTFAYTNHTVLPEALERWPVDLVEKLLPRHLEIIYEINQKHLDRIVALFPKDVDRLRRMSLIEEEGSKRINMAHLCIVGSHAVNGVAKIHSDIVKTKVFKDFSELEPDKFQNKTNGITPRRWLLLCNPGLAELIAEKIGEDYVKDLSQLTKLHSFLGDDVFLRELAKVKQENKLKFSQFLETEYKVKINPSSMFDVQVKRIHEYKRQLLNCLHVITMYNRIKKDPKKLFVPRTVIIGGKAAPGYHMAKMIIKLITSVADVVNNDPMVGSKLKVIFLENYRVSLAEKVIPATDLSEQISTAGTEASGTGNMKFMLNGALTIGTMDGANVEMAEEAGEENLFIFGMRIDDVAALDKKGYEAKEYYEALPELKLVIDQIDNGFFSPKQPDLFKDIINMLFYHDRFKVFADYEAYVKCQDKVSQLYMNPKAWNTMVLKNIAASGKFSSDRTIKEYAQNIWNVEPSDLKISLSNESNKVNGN
In kind it is subcellular, K-562, COLO 205, SK-N-BE(2) and MV-4-11, Cell lysate. As to conditions: read-out: Kd apparent.

Test [2] addresses Adenosine kinase (Homo sapiens, UniProt P55263).
Test [3] concerns the target T2, Delta(24)-sterol reductase (Homo sapiens, UniProt Q15392).
T2 sequence (Q15392 whole entry): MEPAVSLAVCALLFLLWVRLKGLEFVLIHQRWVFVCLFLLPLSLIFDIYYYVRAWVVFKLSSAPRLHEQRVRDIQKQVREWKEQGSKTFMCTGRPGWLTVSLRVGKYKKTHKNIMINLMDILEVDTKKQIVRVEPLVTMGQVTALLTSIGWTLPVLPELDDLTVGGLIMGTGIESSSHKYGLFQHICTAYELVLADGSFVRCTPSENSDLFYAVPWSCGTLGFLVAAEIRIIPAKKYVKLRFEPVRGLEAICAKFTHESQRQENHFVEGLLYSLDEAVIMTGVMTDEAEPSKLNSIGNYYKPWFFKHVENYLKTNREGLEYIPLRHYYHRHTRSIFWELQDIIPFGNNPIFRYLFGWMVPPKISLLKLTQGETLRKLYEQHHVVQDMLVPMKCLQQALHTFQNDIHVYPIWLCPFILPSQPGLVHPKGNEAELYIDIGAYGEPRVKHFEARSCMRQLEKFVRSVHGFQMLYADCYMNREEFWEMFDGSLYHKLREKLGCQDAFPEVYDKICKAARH

For test [4], the target named is Mitogen-activated protein kinase 1 (Homo sapiens, UniProt P28482).
Test [5] deals with Mitogen-activated protein kinase 7 (Homo sapiens, UniProt Q13164).
Test [6] concerns the target Serine/threonine-protein kinase pim-1 (Homo sapiens, UniProt P11309).
For test [7], the target named is Protein kinase C beta type (Homo sapiens, UniProt P05771).
For test [8], the target named is Serine/threonine-protein kinase SIK3 (Homo sapiens, UniProt Q9Y2K2).
Test [9] addresses Proto-oncogene tyrosine-protein kinase Src (Homo sapiens, UniProt P12931).
For test [10], the target named is DNA topoisomerase 2-beta (Homo sapiens, UniProt Q02880).
Test [11] concerns the target T3, EKC/KEOPS complex subunit TP53RK (Homo sapiens, UniProt Q96S44).
T3 sequence (Q96S44 whole entry): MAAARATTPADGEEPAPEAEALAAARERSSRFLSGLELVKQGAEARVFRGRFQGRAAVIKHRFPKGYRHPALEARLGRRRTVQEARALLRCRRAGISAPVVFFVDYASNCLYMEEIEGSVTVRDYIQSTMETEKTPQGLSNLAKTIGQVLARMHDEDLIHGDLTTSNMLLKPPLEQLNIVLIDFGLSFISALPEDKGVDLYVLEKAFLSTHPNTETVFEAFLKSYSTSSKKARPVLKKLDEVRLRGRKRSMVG

For test [12], the target named is T4, General transcription and DNA repair factor IIH helicase subunit XPD (Homo sapiens, UniProt P18074).
T4 sequence (P18074 whole entry): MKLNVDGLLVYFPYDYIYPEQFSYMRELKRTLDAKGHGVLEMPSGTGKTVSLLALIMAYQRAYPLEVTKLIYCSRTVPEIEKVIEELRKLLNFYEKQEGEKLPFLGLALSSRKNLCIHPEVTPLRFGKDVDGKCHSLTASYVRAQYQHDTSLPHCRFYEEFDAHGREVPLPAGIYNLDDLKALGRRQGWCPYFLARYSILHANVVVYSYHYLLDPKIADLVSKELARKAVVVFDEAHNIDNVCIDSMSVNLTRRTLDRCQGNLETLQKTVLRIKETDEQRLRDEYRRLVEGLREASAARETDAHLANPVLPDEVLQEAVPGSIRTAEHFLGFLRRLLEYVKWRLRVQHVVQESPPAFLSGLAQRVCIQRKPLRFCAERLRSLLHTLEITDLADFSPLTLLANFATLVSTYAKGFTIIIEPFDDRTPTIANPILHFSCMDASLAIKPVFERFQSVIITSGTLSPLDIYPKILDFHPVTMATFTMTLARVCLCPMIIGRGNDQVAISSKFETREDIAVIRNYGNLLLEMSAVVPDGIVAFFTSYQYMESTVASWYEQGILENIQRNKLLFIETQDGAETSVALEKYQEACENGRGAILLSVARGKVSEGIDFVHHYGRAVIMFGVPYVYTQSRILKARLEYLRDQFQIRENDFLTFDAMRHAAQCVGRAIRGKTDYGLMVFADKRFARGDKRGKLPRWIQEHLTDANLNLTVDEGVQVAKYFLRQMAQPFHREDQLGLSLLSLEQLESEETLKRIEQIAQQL
As to conditions: read-out: Kd apparent; k-562, colo 205, sk-n-be(2) and mv-4-11.

Each structure is given as a SMILES string. Active and inactive are the calls of the source.
Further: in the data inactive means no Kd found up to 30 µM.

Sequence of Mitogen-activated protein kinase 1 (P28482 whole entry): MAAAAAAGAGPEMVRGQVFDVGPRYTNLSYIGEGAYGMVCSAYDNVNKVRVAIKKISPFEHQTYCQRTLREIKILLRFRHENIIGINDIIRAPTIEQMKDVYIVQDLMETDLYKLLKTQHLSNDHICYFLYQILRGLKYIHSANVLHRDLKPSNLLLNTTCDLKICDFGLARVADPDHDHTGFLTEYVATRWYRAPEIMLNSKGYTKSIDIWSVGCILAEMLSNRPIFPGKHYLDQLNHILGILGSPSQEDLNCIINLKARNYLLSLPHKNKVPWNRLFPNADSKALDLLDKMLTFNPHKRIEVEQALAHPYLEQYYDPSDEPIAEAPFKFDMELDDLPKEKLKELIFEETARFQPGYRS
Sequence of Adenosine kinase (P55263 whole entry): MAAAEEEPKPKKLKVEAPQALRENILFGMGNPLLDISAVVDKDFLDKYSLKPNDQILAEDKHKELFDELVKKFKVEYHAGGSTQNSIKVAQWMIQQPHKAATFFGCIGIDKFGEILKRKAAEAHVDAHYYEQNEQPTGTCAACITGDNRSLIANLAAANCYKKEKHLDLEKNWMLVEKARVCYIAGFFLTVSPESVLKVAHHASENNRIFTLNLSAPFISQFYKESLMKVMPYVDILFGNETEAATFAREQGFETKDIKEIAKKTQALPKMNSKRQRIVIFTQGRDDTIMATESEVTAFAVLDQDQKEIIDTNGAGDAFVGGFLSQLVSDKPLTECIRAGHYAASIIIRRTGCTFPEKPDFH
Sequence of Serine/threonine-protein kinase SIK3 (Q9Y2K2 whole entry): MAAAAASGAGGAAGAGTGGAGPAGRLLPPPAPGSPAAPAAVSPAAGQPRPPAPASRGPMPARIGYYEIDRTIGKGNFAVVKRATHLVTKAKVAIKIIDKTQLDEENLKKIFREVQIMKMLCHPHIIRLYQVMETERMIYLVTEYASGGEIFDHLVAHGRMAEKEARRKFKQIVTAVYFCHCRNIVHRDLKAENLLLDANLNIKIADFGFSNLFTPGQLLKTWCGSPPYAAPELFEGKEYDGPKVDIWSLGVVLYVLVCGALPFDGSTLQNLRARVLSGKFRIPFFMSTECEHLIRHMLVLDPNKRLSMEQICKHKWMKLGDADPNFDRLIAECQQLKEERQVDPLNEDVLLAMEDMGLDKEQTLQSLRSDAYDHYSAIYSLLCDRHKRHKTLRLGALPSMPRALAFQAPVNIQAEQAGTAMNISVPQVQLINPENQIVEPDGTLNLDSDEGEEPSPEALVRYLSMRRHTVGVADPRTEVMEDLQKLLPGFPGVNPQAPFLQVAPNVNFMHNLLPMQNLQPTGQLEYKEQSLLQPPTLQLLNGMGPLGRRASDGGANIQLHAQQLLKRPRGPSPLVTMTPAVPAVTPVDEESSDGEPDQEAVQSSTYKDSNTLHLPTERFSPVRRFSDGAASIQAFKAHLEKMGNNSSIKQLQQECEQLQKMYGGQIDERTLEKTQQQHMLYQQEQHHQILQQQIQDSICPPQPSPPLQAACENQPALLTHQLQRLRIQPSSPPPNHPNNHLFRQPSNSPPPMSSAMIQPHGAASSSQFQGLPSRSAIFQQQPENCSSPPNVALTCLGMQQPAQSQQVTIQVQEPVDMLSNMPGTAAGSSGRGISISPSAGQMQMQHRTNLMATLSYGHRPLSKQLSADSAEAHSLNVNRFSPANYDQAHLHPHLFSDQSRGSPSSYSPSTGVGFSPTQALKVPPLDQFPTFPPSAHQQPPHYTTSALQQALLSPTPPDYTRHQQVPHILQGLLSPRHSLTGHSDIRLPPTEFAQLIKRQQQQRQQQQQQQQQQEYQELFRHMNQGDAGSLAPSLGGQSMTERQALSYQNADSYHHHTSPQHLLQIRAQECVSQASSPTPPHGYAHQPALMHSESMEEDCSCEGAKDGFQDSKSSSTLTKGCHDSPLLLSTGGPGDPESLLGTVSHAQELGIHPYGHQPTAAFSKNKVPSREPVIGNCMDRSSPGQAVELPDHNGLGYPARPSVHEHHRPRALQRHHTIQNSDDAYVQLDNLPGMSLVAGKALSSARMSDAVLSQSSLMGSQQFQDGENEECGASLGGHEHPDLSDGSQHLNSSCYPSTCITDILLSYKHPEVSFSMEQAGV
Sequence of Serine/threonine-protein kinase pim-1 (P11309 whole entry): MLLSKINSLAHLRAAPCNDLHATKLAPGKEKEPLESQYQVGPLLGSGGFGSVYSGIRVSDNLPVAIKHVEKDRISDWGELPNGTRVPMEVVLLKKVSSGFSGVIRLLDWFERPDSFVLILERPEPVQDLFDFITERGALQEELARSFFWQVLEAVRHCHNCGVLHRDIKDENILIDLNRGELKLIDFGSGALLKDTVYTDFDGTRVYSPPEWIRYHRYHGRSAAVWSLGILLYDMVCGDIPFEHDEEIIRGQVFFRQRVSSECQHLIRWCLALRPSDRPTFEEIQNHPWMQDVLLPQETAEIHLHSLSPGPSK
Sequence of DNA topoisomerase 2-beta (Q02880 whole entry): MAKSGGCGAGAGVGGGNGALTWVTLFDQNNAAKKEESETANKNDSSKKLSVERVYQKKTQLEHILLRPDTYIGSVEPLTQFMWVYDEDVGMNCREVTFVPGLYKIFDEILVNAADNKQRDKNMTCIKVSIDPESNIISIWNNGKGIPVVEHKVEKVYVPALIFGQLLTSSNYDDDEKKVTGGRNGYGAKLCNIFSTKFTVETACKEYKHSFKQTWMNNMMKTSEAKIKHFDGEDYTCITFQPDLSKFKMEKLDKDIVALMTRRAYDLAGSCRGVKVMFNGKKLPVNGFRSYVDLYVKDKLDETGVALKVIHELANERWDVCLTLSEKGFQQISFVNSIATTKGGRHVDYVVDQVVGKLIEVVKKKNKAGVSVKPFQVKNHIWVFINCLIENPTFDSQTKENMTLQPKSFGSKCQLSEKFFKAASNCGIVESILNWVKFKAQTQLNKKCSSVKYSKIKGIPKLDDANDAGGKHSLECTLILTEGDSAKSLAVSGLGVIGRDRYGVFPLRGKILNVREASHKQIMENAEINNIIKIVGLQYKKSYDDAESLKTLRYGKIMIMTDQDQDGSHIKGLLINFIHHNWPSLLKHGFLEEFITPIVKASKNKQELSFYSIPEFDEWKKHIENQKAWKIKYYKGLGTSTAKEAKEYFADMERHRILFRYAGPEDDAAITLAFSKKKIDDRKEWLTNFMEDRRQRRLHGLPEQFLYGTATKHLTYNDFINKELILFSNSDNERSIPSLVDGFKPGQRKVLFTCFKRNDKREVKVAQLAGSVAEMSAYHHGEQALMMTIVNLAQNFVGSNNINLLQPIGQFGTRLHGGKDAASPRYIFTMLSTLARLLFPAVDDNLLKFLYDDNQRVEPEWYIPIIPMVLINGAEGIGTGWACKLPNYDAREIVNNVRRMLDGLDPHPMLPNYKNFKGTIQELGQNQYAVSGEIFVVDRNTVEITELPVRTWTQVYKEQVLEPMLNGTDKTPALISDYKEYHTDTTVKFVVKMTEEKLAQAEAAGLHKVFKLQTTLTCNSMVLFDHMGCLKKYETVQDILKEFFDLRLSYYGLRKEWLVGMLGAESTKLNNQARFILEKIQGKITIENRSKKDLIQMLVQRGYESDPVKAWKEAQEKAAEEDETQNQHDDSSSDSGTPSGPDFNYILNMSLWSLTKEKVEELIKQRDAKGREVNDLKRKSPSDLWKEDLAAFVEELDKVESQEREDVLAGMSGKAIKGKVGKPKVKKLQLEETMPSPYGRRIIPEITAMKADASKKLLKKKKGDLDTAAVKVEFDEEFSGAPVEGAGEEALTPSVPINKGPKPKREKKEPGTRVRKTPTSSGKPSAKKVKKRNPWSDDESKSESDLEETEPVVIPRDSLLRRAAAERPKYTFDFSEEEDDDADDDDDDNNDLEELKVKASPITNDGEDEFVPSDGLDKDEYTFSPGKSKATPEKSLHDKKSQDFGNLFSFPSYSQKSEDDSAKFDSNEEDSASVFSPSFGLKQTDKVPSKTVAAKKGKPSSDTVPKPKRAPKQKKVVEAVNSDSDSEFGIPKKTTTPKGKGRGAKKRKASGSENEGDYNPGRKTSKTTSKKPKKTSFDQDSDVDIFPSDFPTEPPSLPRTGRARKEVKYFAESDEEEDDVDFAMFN
Sequence of Mitogen-activated protein kinase 7 (Q13164 whole entry): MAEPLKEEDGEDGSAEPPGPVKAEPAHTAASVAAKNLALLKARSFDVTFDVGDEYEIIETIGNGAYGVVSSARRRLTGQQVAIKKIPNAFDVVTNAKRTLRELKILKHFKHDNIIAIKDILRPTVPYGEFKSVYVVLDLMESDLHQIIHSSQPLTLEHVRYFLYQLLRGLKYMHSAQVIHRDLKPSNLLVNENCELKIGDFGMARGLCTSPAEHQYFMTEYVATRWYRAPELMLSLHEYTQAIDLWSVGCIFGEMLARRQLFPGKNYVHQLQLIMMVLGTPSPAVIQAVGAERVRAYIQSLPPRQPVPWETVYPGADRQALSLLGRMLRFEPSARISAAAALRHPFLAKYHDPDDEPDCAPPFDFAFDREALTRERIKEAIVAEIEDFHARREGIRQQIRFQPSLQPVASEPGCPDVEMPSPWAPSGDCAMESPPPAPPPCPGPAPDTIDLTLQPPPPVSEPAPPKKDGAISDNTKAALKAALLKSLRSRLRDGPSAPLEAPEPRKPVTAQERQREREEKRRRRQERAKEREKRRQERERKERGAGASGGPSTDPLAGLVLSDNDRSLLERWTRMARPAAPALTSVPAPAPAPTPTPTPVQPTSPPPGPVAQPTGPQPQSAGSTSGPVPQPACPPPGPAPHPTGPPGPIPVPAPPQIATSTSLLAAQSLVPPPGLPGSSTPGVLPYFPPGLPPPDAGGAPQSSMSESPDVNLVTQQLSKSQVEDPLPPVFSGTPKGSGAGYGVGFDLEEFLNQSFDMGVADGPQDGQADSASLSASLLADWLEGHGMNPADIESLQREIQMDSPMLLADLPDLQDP

As to `O=c1sn(-c2cccc3ccccc23)c(=O)n1Cc1ccccc1` [TIDEGLUSIB], the Kd in test [1], in test [2], in test [3], in test [4], in [5] and in test [6] was > 30 µM (inactive) in each case. The Kd in [7], in [8], in [9], in test [10], in test [11] and in test [12] was > 30 µM (inactive) in each case.
In the case of `Cc1ccc(S(=O)(=O)Nc2nc3ccccc3nc2Nc2ccc3nsnc3c2)cc1`, the Kd in test [1], in test [2], in test [3], in test [4], in test [5] and in test [6] was > 30 µM (inactive) in each case. The Kd in [7], in [8], in test [9], in test [10], in test [11] and in test [12] was > 30 µM (inactive) in each case.
Regarding `Cn1cc(-c2ccc(F)c(C(F)(F)F)c2)nc1C1CCN(c2ncnc3[nH]ncc23)CC1` [LY-2584702], the Kd in [1], in test [2], in test [3], in test [4], in test [5] and in [6] was > 30 µM (inactive) each time. For the same compound, the Kd in test [7], in test [8], in test [9], in test [10], in [11] and in test [12] was > 30 µM (inactive) each time.
For the compound `CN(C)C(=O)c1cc2cnc(Nc3ccc(N4CCNCC4)cn3)nc2n1C1CCCC1` [RIBOCICLIB], the Kd in test [1], in [2], in [3], in test [4], in test [5] and in test [6] was > 30 µM (inactive) each time. In addition, the Kd in test [7], in test [8], in test [9], in test [10], in test [11] and in [12] was > 30 µM (inactive) in each case.
As to `O=C(Nc1ccc(-c2ccnc(Nc3ccc(N4CCOCC4)cc3)n2)cc1)C1CCCN1` (stereo not drawn) [XL-019], the Kd in test [1], in [2], in test [3], in test [4], in test [5] and in test [6] was > 30 µM (inactive) in each case. Moreover, the Kd in test [7] is > 30 µM (inactive); in [8], 0.206 µM (active); in [9], > 30 µM (inactive); in [10], > 30 µM (inactive); in test [11], > 30 µM (inactive); in test [12], > 30 µM (inactive).
For `CNC(=O)CN1CCC(Oc2cc3c(Nc4cccc(Cl)c4F)ncnc3cc2OC)CC1` [SAPITINIB], the Kd in test [1] is > 30 µM (inactive); in [2], 1.4 µM; in test [3], > 30 µM (inactive); in test [4], > 30 µM (inactive); in test [5] it was > 30 µM (inactive); in [6] it was > 30 µM (inactive). Besides, the Kd in [7], in test [8], in [9], in test [10], in test [11] and in test [12] was > 30 µM (inactive) throughout.
As for `Cc1cc([C@@H](C)Nc2ccccc2C(=O)O)c2nc(N3CCOCC3)cc(=O)n2c1` [AZD-6482], the Kd in test [1], in test [2], in test [3], in test [4], in [5] and in test [6] was > 30 µM (inactive) in each case. Also, the Kd in test [7], in [8], in [9], in test [10], in test [11] and in test [12] was > 30 µM (inactive) throughout.
Consider `CCN1CCN(Cc2ccc(-c3cc4c(N[C@H](C)c5ccccc5)ncnc4[nH]3)cc2)CC1` [AEE-788], for which the Kd in test [1], in test [2], in [3], in test [4], in [5] and in test [6] was > 30 µM (inactive) in each case. For the same compound, the Kd in [7], in [8], in [9], in test [10], in [11] and in test [12] was > 30 µM (inactive) in each case.
`CC(=O)Nc1cccc(-n2c(=O)n(C3CC3)c(=O)c3c(Nc4ccc(I)cc4F)n(C)c(=O)c(C)c32)c1` [TRAMETINIB]: the Kd in [1], in test [2], in test [3], in test [4], in test [5] and in test [6] was > 30 µM (inactive) throughout. For the same compound, the Kd in test [7], in test [8], in [9], in test [10], in test [11] and in test [12] was > 30 µM (inactive) each time.
